Test results: US20130030001A1 (priority 2008, published 2013)
pIC50: −log10 of the molar value. Counter-ions that a name gives are not always drawn.

Target: T1, human muscarinic acetylcholine M3 receptor (Homo sapiens, UniProt P20309)
T1 construct: expressed in transfected cells; host or cells: CHO-K1 (Chinese Hamster Ovary) cell membranes
Assay: biochemical
Format: binding
Settings: M3 binding IC50

T1 sequence (P20309 whole entry): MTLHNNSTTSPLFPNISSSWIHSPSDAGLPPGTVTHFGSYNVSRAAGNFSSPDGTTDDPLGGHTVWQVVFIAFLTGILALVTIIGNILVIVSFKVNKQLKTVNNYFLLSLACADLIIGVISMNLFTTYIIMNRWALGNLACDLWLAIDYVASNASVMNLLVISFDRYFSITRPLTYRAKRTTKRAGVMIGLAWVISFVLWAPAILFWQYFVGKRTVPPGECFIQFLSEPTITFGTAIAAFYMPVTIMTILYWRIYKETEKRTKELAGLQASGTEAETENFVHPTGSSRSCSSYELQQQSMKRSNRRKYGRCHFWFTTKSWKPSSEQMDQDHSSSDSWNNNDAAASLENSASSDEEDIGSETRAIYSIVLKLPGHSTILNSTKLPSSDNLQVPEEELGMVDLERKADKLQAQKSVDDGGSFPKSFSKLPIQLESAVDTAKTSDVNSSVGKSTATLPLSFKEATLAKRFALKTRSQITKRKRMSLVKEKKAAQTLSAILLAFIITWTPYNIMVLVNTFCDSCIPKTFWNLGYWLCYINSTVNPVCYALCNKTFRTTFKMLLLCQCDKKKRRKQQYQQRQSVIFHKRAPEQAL

Row | Compound | pIC50
1 | O=C(C[N+]12CCC(CC1)[C@@H](OC(=O)C1(c3ccccc3)CCCCCC1)C2)Nc1ccncn1 [Example 22, (R)-3-(1-Phenyl-cycloheptanecarbonyloxy)-1-(pyrimidin-4-ylcarbamoylmethyl)-1-azonia-bicyclo[2.2.2]octane chloride] | > 8.70
2 | O=C(C[N+]12CCC(CC1)[C@@H](OC(=O)C1(c3ccccc3)CCCCCC1)C2)Nc1ccccc1F [Example 23, (R)-1-[(2-Fluoro-phenylcarbamoyl)-methyl]-3-(1-phenyl-cycloheptanecarbonyloxy)-1-azonia-bicyclo[2.2.2]octane bromide] | > 8.70
3 | O=C(C[N+]12CCC(CC1)[C@@H](OC(=O)C1(c3ccccc3)CCCCCC1)C2)Nc1cccc(F)c1F [Example 24, (R)-1-[(2,3-Difluoro-phenylcarbamoyl)-methyl]-3-(1-phenyl-cycloheptanecarbonyloxy)-1-azonia-bicyclo[2.2.2]octane bromide] | > 8.70
4 | O=C(O[C@H]1C[N+]2(CCc3ccc4c(c3)CCO4)CCC1CC2)C1(c2ccccc2)CCCCCC1 [Example 25, (R)-1-[2-(2,3-Dihydro-benzofuran-5-yl)-ethyl]-3-(1-phenyl-cycloheptanecarbonyloxy)-1-azonia-bicyclo[2.2.2]octane formate] | > 8.70
5 | O=C(O[C@H]1C[N+]2(CCOc3ccc(F)cc3)CCC1CC2)C1(c2ccccc2)CCCCCC1 [Example 26, (R)-1-[2-(4-Fluoro-phenoxy)-ethyl]-3-(1-phenyl-cycloheptanecarbonyloxy)-1-azonia-bicyclo[2.2.2]octane formate] | > 8.70
6 | O=C(C[N+]12CCC(CC1)[C@@H](OC(=O)C1(c3ccccc3)CCCCCC1)C2)Nc1ccnnc1 [Example 27, (R)-3-(1-phenyl-cycloheptanecarbonyloxy)-1-(pyridazin-4-ylcarbamoylmethyl)-1-azonia-bicyclo[2.2.2]octane formate] | 8.00 to 8.70
7 | O=C(C[N+]12CCC(CC1)[C@@H](OC(=O)C1(c3ccccc3)CCCCCC1)C2)Nc1cncc(F)c1 [Example 28, (R)-1-[(5-Fluoro-pyridin-3-ylcarbamoyl)-methyl]-3-(1-phenyl-cycloheptanecarbonyloxy)-1-azonia-bicyclo[2.2.2]octane chloride] | 8.00 to 8.70
8 | O=C(O[C@H]1C[N+]2(CCOc3cccnc3)CCC1CC2)C1(c2ccccc2)CCCCCC1 [Example 29, (R)-3-(1-Phenyl-cycloheptanecarbonyloxy)-1-[2-(pyridin-3-yloxy)-ethyl]-1-azonia-bicyclo[2.2.2]octane formate] | 8.00 to 8.70
9 | Cc1cccc(NC(=O)C[N+]23CCC(CC2)[C@@H](OC(=O)C2(c4ccccc4)CCCCCC2)C3)n1 [Example 30, (R)-1-[(6-Methyl-pyridin-2-ylcarbamoyl)-methyl]-3-(1-phenyl-cycloheptanecarbonyloxy)-1-azonia-bicyclo[2.2.2]octane chloride] | > 8.70
10 | Cc1ccccc1NC(=O)C[N+]12CCC(CC1)[C@@H](OC(=O)C1(c3ccccc3)CCCCCC1)C2 [Example 31, (R)-3-(1-Phenyl-cycloheptanecarbonyloxy)-1-(o-tolylcarbamoyl-methyl)-1-azonia-bicyclo[2.2.2]octane bromide] | 8.00 to 8.70
11 | O=C(O[C@H]1C[N+]2(CCc3cnccn3)CCC1CC2)C1(c2ccccc2)CCCCCC1 [Example 32, (R)-3-(1-Phenyl-cycloheptanecarbonyloxy)-1-(2-pyrazin-2-yl-ethyl)-1-azonia-bicyclo[2.2.2]octane bromide] | 8.00 to 8.70
12 | O=C(O[C@@H]1C[N+]2(CCCOc3ccccc3)CCC1CC2)C1(c2ccccc2)CCCCCC1 [Example 33, (S)-1-(3-Phenoxy-propyl)-3-(1-phenyl-cycloheptanecarbonyloxy)-1-azonia-bicyclo[2.2.2]octane formate] | 8.00 to 8.70
13 | O=C(C[N+]12CCC(CC1)[C@@H](OC(=O)C1(c3ccccc3)CCCCCC1)C2)NCCOc1cccc(F)c1 [Example 34, (R)-1-{[2-(3-Fluoro-phenoxy)-ethylcarbamoyl]-methyl}-3-(1-phenyl-cycloheptanecarbonyloxy)-1-azonia-bicyclo[2.2.2]octane bromide] | 8.00 to 8.70
14 | O=C(C[N+]12CCC(CC1)[C@@H](OC(=O)C1(c3ccccc3)CCCCCC1)C2)Nc1cc(F)cc(F)c1 [Example 35, (R)-1-[(3,5-Difluoro-phenylcarbamoyl)-methyl]-3-(1-phenyl-cycloheptanecarbonyloxy)-1-azonia-bicyclo[2.2.2]octane bromide] | 8.00 to 8.70
15 | COc1ccc(COCC[N+]23CCC(CC2)[C@@H](OC(=O)C2(c4ccccc4)CCCCCC2)C3)cc1 [Example 36, (R)-1-[2-(4-methoxy-benzyloxy)-ethyl]-3-(1-phenyl-cycloheptanecarbonyloxy)-1-azonia-bicyclo[2.2.2]octane formate] | 8.00 to 8.70
16 | O=C(O[C@H]1C[N+]2(CCOCCc3ccccc3)CCC1CC2)C1(c2ccccc2)CCCCCC1 [Example 37, (R)-1-(2-Phenethyloxy-ethyl)-3-(1-phenyl-cycloheptanecarbonyloxy)-1-azonia-bicyclo[2.2.2]octane bromide] | > 8.70
17 | O=C(C[N+]12CCC(CC1)[C@@H](OC(=O)C1(c3ccccc3)CCCCCC1)C2)Nc1c(F)cccc1F [Example 38, (R)-1-[(2,6-Difluoro-phenylcarbamoyl)-methyl]-3-(1-phenyl-cycloheptanecarbonyloxy)-1-azonia-bicyclo[2.2.2]octane bromide] | > 8.70
18 | CN(C(=O)C[N+]12CCC(CC1)[C@@H](OC(=O)C1(c3ccccc3)CCCCCC1)C2)c1ccccc1 [Example 39, (R)-1-[(Methyl-phenyl-carbamoyl)-methyl]-3-(1-phenyl-cycloheptanecarbonyloxy)-1-azonia-bicyclo[2.2.2]octane formate] | 8.00 to 8.70
19 | N#Cc1ccc(OCCC[N+]23CCC(CC2)[C@@H](OC(=O)C2(c4ccccc4)CCCCCC2)C3)cc1 [Example 40, (R)-1-[3-(4-Cyano-phenoxy)-propyl]-3-(1-phenyl-cycloheptanecarbonyloxy)-1-azonia-bicyclo[2.2.2]octane bromide] | > 8.70
20 | O=C(C[N+]12CCC(CC1)[C@@H](OC(=O)C1(c3ccccc3)CCCCCC1)C2)Nc1cc(F)ccc1F [Example 41, (R)-1-[(2,5-Difluoro-phenylcarbamoyl)-methyl]-3-(1-phenyl-cycloheptanecarbonyloxy)-1-azonia-bicyclo[2.2.2]octane bromide] | 8.00 to 8.70
21 | N#Cc1ccc(COCC[N+]23CCC(CC2)[C@@H](OC(=O)C2(c4ccccc4)CCCCCC2)C3)cc1 [Example 42, (R)-1-[2-(4-Cyano-benzyloxy)-ethyl]-3-(1-phenyl-cycloheptanecarbonyloxy)-1-azonia-bicyclo[2.2.2]octane bromide] | 8.00 to 8.70
22 | O=C(C[N+]12CCC(CC1)[C@@H](OC(=O)C1(c3ccccc3)CCCCCC1)C2)Nc1cccc(C(F)(F)F)n1 [Example 43, (R)-3-(1-Phenyl-cycloheptanecarbonyloxy)-1-[(6-trifluoromethyl-pyridin-2-ylcarbamoyl)-methyl]-1-azonia-bicyclo[2.2.2]octane chloride] | 8.00 to 8.70
23 | Cc1ccnc(NC(=O)C[N+]23CCC(CC2)[C@@H](OC(=O)C2(c4ccccc4)CCCCCC2)C3)c1 [Example 44, (R)-1-[(4-Methyl-pyridin-2-ylcarbamoyl)-methyl]-3-(1-phenyl-cycloheptanecarbonyloxy)-1-azonia-bicyclo[2.2.2]octane chloride] | 8.00 to 8.70
